Measured values taken from patent US8101550B2, “Anthranilic acid diamide derivative with hetero-aromatic and hetero-cyclic substituents” (Bayer Cropscience AG, priority 2006, dated 2012).
Read-outs that look alike come from different tables or passages of the source.

Assay: log P determination by HPLC on reverse-phase column (EEC Directive 79/831 Annex V.A8)
Format: physicochemical
Experimental: The log P values stated in the foregoing tables and preparation examples are determined in accordance with EEC Directive 79/831 Annex V.A8 by means of HPLC (High Performance Liquid Chromatography) on a reverse-phase column (C 18). Temperature: 43° C.
The determination by LC-MS in the acidic range takes place at a pH of 2.7 using 0.1% aqueous formic acid and acetonitrile (containing 0.1% formic acid) as eluents; linear gradient from 10% acetonitrile to 95% acetonitrile.
Calibration is with unbranched alkan-2-ones (having 3 to 16 carbon atoms) of known log P value (log P values determined from the retention times by linear interpolation between two successive alkanones).

[1] = HPLC, reverse-phase column (C 18), 43° C., acidic range pH 2.7

Compound | logP (HPLC on reverse-phase column) | logP | also measured
CNC(=O)c1cc(Cl)cc(C)c1NC(=O)c1cc(Cn2nnn(-c3ccc(Cl)cc3)c2=O)nn1-c1ncccc1Cl [I-1-38] | 3.28 |  | 
Cc1cc(F)cc(C(=O)NC(C)CS(C)(=O)=O)c1NC(=O)c1cc(Cn2cc(Cl)c(C(F)(F)C(F)(F)F)n2)nn1-c1ncccc1Cl (stereo not shown) [I-1-204] |  | 3.34 | 
CNC(=O)c1cc(Cl)cc(C)c1NC(=O)c1cc(Cn2ccc(Br)n2)nn1-c1ncccc1Cl [I-1-125] | 2.56 |  | 
CSC[C@H](C)NC(=O)c1cccc(C)c1NC(=O)c1cc(Cn2nc(C(F)(F)F)nc2C(F)(F)F)nn1-c1ncccc1Cl [I-1-84] | 3.62 |  | 
CNC(=O)c1cc(Cl)cc(C)c1NC(=O)c1cc(C(=NOC)n2nc(C(F)(F)F)cc2C(F)(F)F)nn1-c1ncccc1Cl [I-1-355] |  | 4.07 | 
Cc1cc(Br)cc(C(=O)NCC#N)c1NC(=O)c1cc(Cn2cc(Cl)c(C(F)(F)C(F)(F)F)n2)nn1-c1ncccc1Cl [I-1-73] | 3.87 |  | 
Cc1cc(Br)cc(C(=O)NC2CC2)c1NC(=O)c1cc(Cn2cc(C(F)(F)C(F)(F)F)c(C(F)(F)C(F)(F)F)n2)nn1-c1ncccc1Cl [I-1-52] | 4.59 |  | 
Cc1cc(Cl)cc(C(=O)NC(C)C)c1NC(=O)c1cc(Cn2nnn(C)c2=O)nn1-c1ncccc1Cl [I-1-115] | 2.31 |  | 
Cc1cc(Cl)cc(C(=O)NC(C)CS(C)(=N)=O)c1NC(=O)c1cc(Cn2nc(C(F)(F)F)nc2C(F)(F)F)nn1-c1ncccc1Cl (stereo not shown) [I-1-120] | 2.75 |  | 
Cc1cc(Cl)cc(C(=O)NC(C)(C)C[S+](C)[O-])c1NC(=O)c1cc(Cn2cc(Br)c(C(F)(F)F)n2)nn1-c1ncccc1Cl (stereo not shown) [I-1-128] | 3.25 |  | 
CCN(CC)CC(C)NC(=O)c1cc(Cl)cc(C)c1NC(=O)c1cc(Cn2cc(Cl)c(C(F)(F)C(F)(F)F)n2)nn1-c1ncccc1Cl (stereo not shown) [I-1-215] |  | 2.62 | 
Cc1cc(Br)cc(C(=O)NC(C)C)c1NC(=O)c1cc(Cn2ccc(C(F)(F)F)n2)nn1-c1ncccc1Cl [I-1-81] | 3.46 |  | 
CNC(=O)c1cc(Cl)cc(C)c1NC(=O)c1cc(Cn2ccc(C(F)(F)F)n2)nn1-c1ncccc1Cl [I-1-44] | 2.92 |  | 
CNC(=O)c1cc(C#N)cc(C)c1NC(=O)c1cc(Cn2cc(Cl)c(C(F)(F)C(F)(F)F)n2)nn1-c1ncccc1Cl [I-1-171] |  | 3.44 | 
Cc1cc(Br)cc(C(=O)NC(C)(C)C[S+](C)[O-])c1NC(=O)c1cc(Cn2nc(C(F)(F)F)nc2C(F)(F)F)nn1-c1ncccc1Cl (stereo not shown) [I-1-143] | 3.20 |  | 
Cc1cc(Cl)cc(C(=O)NC(C)C)c1NC(=O)c1cc(Cn2cnc(C(F)(F)F)c2)nn1-c1ncccc1Cl [I-1-133] | 2.77 |  | 
CNC(=O)c1cc(Cl)cc(C)c1NC(=O)c1cc(Cn2nnn(-c3ccc(C(F)(F)F)cc3)c2=O)nn1-c1ncccc1Cl [I-1-88] | 3.61 |  | 
Cc1cc(Cl)cc(C(=O)NC(C)(C)C[S+](C)[O-])c1NC(=O)c1cc(Cn2nc(C(F)(F)F)nc2C(F)(F)F)nn1-c1ncccc1Cl (stereo not shown) [I-1-137] | 3.22 |  | 
CNC(=O)c1cc(Cl)cc(C)c1NC(=O)c1cc(Cn2cnc(C(F)(F)C(F)(F)F)n2)nn1-c1ncccc1Cl [I-1-329] |  | 2.57 | 
Cc1cc(I)cc(C(=O)NCC2CC2)c1NC(=O)c1cc(Cn2nc(C(F)(F)F)nc2C(F)(F)F)nn1-c1ncccc1Cl [I-1-253] |  | 4.13 | 
Cc1cc(Cl)cc(C(=O)NC(C)C)c1NC(=O)c1cc(Cn2nc(C(F)(F)F)cc2C(F)(F)F)nn1C [I-2-1] |  |  | logP [1]: 4.08

Compound | logP (HPLC on reverse-phase column) | logP | also measured
CNC(=O)c1cc(Br)cc(C)c1NC(=O)c1cc(Cn2cc(Br)c(C(F)(F)F)n2)nn1-c1ncccc1Cl [I-1-68] | 3.46 |  | 
CNC(=O)c1cc(Cl)cc(C)c1NC(=O)c1cc(Cn2ccc(Cl)n2)nn1-c1ncccc1Cl [I-1-102] | 2.51 |  | 
Cc1cc(I)cc(C(=O)NC2CCC2)c1NC(=O)c1cc(Cn2nc(C(F)(F)F)nc2C(F)(F)F)nn1-c1ncccc1Cl [I-1-282] |  | 4.18 | 
Cc1cc(Br)cc(C(=O)NC2CC2)c1NC(=O)c1cc(Cn2nc(C(F)(F)F)cc2C(F)(F)F)nn1-c1ncc(C(F)(F)F)cc1Cl [I-2-24] |  |  | logP [1]: 4.63
Cc1cc(C#N)cc(C(=O)NCC#N)c1NC(=O)c1cc(Cn2nc(C(F)(F)F)cc2C(F)(F)F)nn1-c1ncccc1Cl [I-1-190] |  | 3.28 | 
Cc1cc(F)cc(C(=O)NC(C)C)c1NC(=O)c1cc(Cn2nc(C(F)(F)F)nc2C(F)(F)F)nn1-c1ncccc1Cl [I-1-218] |  | 3.55 | 
Cc1cc(Br)cc(C(N)=O)c1NC(=O)c1cc(Cn2cc(Cl)c(C(F)(F)C(F)(F)F)n2)nn1-c1ncccc1Cl [I-1-74] | 3.68 |  | 
CSC[C@H](C)NC(=O)c1cc(Br)cc(C)c1NC(=O)c1cc(Cn2nc(C(F)(F)F)nc2C(F)(F)F)nn1-c1ncccc1Cl [I-1-135] | 4.24 |  | 
CNC(=O)c1cc(Cl)cc(C)c1NC(=O)c1cc(Cn2nc(C(F)(F)F)n(C)c2=O)nn1-c1ncccc1Cl [I-1-116] | 2.44 |  | 
CNC(=O)c1cc(Cl)cc(Cl)c1NC(=O)c1cc(Cn2cc(C(F)(F)C(F)(F)F)c(C(F)(F)C(F)(F)F)n2)nn1-c1ncccc1Cl [I-1-297] |  | 3.59 | 
CNC(=O)c1cc(Cl)cc(Cl)c1NC(=O)c1cc(Cn2nc(C(F)(F)F)nc2C(F)(F)F)nn1C(C)C [I-2-3] |  |  | logP [1]: 3.31
NC(=O)c1cc(Cl)cc(Cl)c1NC(=O)c1cc(Cn2nc(C(F)(F)F)cc2C(F)(F)F)nn1-c1ncccc1Cl [I-1-302] |  | 2.80 | 
Cc1cc(C#N)cc(C(=O)NC2CC2)c1NC(=O)c1cc(Cn2cc(Cl)c(C(F)(F)C(F)(F)F)n2)nn1-c1ncccc1Cl [I-1-173] |  | 3.59 | 
CNC(=O)c1cc(Cl)cc(C)c1NC(=O)c1cc(Cn2nnn(-c3ccc(C(F)(F)F)c(Cl)c3)c2=O)nn1-c1ncccc1Cl [I-1-108] | 3.90 |  | 
Cc1cc(I)cc(C(=O)NC(C)C)c1NC(=O)c1cc(Cn2nc(C(F)(F)F)nc2C(F)(F)F)nn1-c1ncccc1Cl [I-1-238] |  | 4.06 | 
Cc1cc(I)cc(C(=O)NC2CC2)c1NC(=O)c1cc(Cn2nc(C(F)(F)F)cc2C(F)(F)F)nn1-c1ncccc1Cl [I-1-231] |  | 4.01 | 
Cc1cc(C#N)cc(C(=O)NC2CC2)c1NC(=O)c1cc(Cn2ccc(C(F)(F)F)n2)nn1-c1ncccc1Cl [I-1-183] |  | 2.75 | 
Cc1cc(I)cc(C(=O)NC2CC2)c1NC(=O)c1cc(Cn2ccc(C(F)(F)F)n2)nn1-c1ncccc1Cl [I-1-249] |  | 3.27 | 
CSC[C@H](C)NC(=O)c1cc(Cl)cc(C)c1NC(=O)c1cc(Cn2nnc(-c3ccc(Br)cc3)n2)nn1-c1ncccc1Cl [I-1-152] |  | 4.41 | 
Cc1cc(I)cc(C(=O)NC(C)C)c1NC(=O)c1cc(Cn2nc(C(F)(F)F)cc2C(F)(F)F)nn1-c1ncc(C(F)(F)F)cc1Cl [I-2-9] |  |  | logP [1]: 4.98
Cc1cc(Cl)cc(C(=O)N[C@@H](C)CS(C)(=O)=O)c1NC(=O)c1cc(Cn2cc(Br)c(C(F)(F)F)n2)nn1-c1ncccc1Cl [I-1-141] | 3.26 |  | 

Compound | logP (HPLC on reverse-phase column) | logP | also measured
Cc1cc(I)cc(C(=O)NC(C)C)c1NC(=O)c1cc(Cn2cc(C(F)(F)C(F)(F)F)c(C(F)(F)C(F)(F)F)n2)nn1-c1ncccc1Cl [I-1-240] |  | 4.96 | 
Cc1cc(Cl)cc(C(=O)NC(C)C)c1NC(=O)c1cc(Cn2nnn(-c3ccc(Cl)cc3)c2=O)nn1-c1ncccc1Cl [I-1-168] |  | 3.79 | 
Cc1cc(Cl)cc(C(=O)NC(C)C)c1NC(=O)c1cc(Cn2nc(C(F)(F)F)n(C)c2=O)nn1-c1ncccc1Cl [I-1-117] | 2.85 |  | 
Cc1cc(C#N)cc(C(N)=O)c1NC(=O)c1cc(Cn2cnc(C(F)(F)C(F)(F)F)n2)nn1-c1ncccc1Cl [I-1-350] |  | 1.75 | 
Cc1cc(C#N)cc(C(=O)NC2C3CCCCC32)c1NC(=O)c1cc(Cn2cc(Cl)c(C(F)(F)C(F)(F)F)n2)nn1-c1ncccc1Cl (stereo not shown) [I-1-197] |  | 4.50 | 
Cc1cc(Cl)cc(C(=O)NC(C)C)c1NC(=O)c1cc(Cn2cc(C(F)(F)F)cn2)nn1-c1ncccc1Cl [I-1-43] | 3.20 |  | 
CSc1ncn(Cc2cc(C(=O)Nc3c(C)cc(Cl)cc3C(=O)NC(C)C)n(-c3ncccc3Cl)n2)n1 [I-1-262] |  | 2.31 | 
Cc1cc(I)cc(C(=O)NCC2CC2)c1NC(=O)c1cc(Cn2nc(C(F)(F)F)cc2C(F)(F)F)nn1-c1ncccc1Cl [I-1-235] |  | 4.34 | 
Cc1cc(Cl)cc(C(=O)NC(C)C)c1NC(=O)c1cc(Cn2nnc(-c3ccc(C(F)(F)F)cc3)n2)nn1-c1ncccc1Cl [I-1-105] | 4.14 |  | 
CSCC(C)NC(=O)c1cc(F)cc(C)c1NC(=O)c1cc(Cn2cc(Cl)c(C(F)(F)C(F)(F)F)n2)nn1-c1ncccc1Cl (stereo not shown) [I-1-195] |  | 4.13 | 
N#CCNC(=O)c1cc(Cl)cc(Cl)c1NC(=O)c1cc(Cn2ccc(C(F)(F)F)n2)nn1-c1ncccc1Cl [I-1-313] |  | 2.43 | 
Cc1cc(Cl)cc(C(=O)NC(C)(C)CS(C)(=O)=O)c1NC(=O)c1cc(Cn2cc(Br)c(C(F)(F)F)n2)nn1-c1ncccc1Cl [I-1-145] | 3.56 |  | 
CCNC(=O)c1cc(I)cc(C)c1NC(=O)c1cc(Cn2cc(Cl)c(C(F)(F)C(F)(F)F)n2)nn1-c1ncccc1Cl [I-1-277] |  | 4.17 | 
CNC(=O)c1cc(C#N)cc(C)c1NC(=O)c1cc(Cn2ccc(C(F)(F)F)n2)nn1-c1ncccc1Cl [I-1-181] |  | 2.57 | 
N#CCNC(=O)c1cc(Cl)cc(Cl)c1NC(=O)c1cc(Cn2cnc(C(F)(F)C(F)(F)F)n2)nn1-c1ncccc1Cl [I-1-349] |  | 2.19 | 
CNC(=O)c1cc(Cl)cc(Cl)c1NC(=O)c1cc(Cc2c(C)noc2C)nn1-c1ncccc1Cl [I-1-322] |  | 1.94 | 
CC(C)NC(=O)c1cc(Cl)cc(Cl)c1NC(=O)c1cc(Cc2cccnc2)nn1-c1ncccc1Cl [I-1-317] |  | 1.31 | 
Cc1cc(Cl)cc(C(=O)N=S(C(C)C)C(C)C)c1NC(=O)c1cc(Cn2nc(C(F)(F)F)nc2C(F)(F)F)nn1-c1ncccc1Cl [I-1-167] |  | 4.44 | 
CCNC(=O)OC[C@H](C)NC(=O)c1cc(Cl)cc(C)c1NC(=O)c1cc(Cn2nc(C(F)(F)F)nc2C(F)(F)F)nn1-c1ncccc1Cl [I-1-77] | 3.58 |  | 
